Data from US20080019910A1, “Cancer Treatment and Cancer Treatment Efficacy Prediction by Blocking and Detecting Protease Inhibitors” (priority 2004, published 2008).

Tests used:
[1] = tested on: TIMP-1−/− and TIMP-1+/+ fibrosarcoma cells; assay: LDH release cytotoxicity assay; format: cell-based, mouse
Text: (§1) The damage of the plasma membrane is classically evaluated as a parameter for cell death. In vivo the plasma membrane of apoptotic cells persists until the cell is phagocytised. In contrast, necrotic cell death results in leakage of cytoplasm to the extracellular environment, which leads to an inflammatory response. Under cell culture conditions, cells that have been subjected to an apoptotic stimulus will initially die by apoptosis, but later shift into secondary necrosis due to lack of phagocytosis in the cell culture. Cytotoxicity or cell lysis can be measured by determining the release of lactate dehydrogenase (LDH) in the culture supernatant. For this purpose the “Cytotoxicity detection kit” (Roche, Mannheim, Germany) was employed.
TIMP-1−/− and TIMP-1+/+ fibrosarcoma cells (see above method for establishment of fibrosarcoma cells from mice) were seeded in a 96-well microtiter plate (2500 cells/well). After 24 hours, cells are treated with etoposide for 24 h. Fifty μl of culture supernatant (total: 200 μl) is transferred to a new 96-well microtiter plate and mixed with 50 μl of a substrate mix. The remaining supernatant is discarded, and the remaining intact cells are lysed by addition of 200 μl of lysis buffer (1% Triton-X100 in CM). […] The absorbance is measured on a spectrophotometer at λ1=490 nm and reference λ2=650 nm. […]

[2] = tested on: PAI-1−/− fibrosarcoma cells; assay: LDH release cytotoxicity assay; format: cell-based, mouse; details: for LDH release (% of total activity): PAI-1−/− cells; for sensitivity to treatment (LDH release): PAI-1−/− compared with PAI-1+/+ fibrosarcoma cells; for cell lysis (LDH release): both PAI-1−/− and PAI-1+/+ fibrosarcoma cells
Text: as §1
(§2) PAI-1−/− and PAI-1+/+ fibrosarcoma cells were seeded in a 96-well microtiter plate (2500 cells/well). Fifty μl of culture supernatant (total: 200 μl) is transferred to a new 96-well microtiter plate and mixed with 50 μl of a substrate mix. The remaining supernatant is discarded, and the remaining intact cells are lysed by addition of 200 μl of lysis buffer (1% Triton-X100 in CM). After 30 min lysis at 37° C., 50 μl of lysate is transferred to a new 96-well microtiter plate and mixed with 50 μl of a substrate mix. The cell culture supernatant and lysate are incubated for 10 min with the substrate mix protected from light. The absorbance is measured on a spectrophotometer at λ1=490 nm and reference λ2=650 nm. The amount of released LDH in % is related to total amount: [formula] Results

[3] = tested on: PAI-1+/+ fibrosarcoma cells; assay: LDH release cytotoxicity assay; format: cell-based, mouse; details: PAI-1+/+ cells
Text: as §1, §2

[4] = tested on: PAI-1 transfected PAI-1−/− fibrosarcoma cells; assay: LDH release after reintroduction of PAI-1 expression; format: cell-based, mouse; details: PAI-1−/−(PAI-1 pool) versus PAI-1−/− (vector pool) and parental PAI-1−/− cells
Protocol: Transfection of PAI-1−/− fibrosarcoma cells was performed by the use of Lipofectamine 2000 ([…]) according to the manufactures instructions employing 2×10^5 cells. After 2 days the cells were seed in tissue culture flasks and 100 μg/ml Hygromycin was added to the medium to select for transfected cells in pooled population. Experiments were performed 2 months after transfection. The sensitivity to apoptosis was measured by treating the cells with etoposide and TNF-α and detecting the LDH release as described in Example 4.

[5] = In vivo toxicity (weight loss, white blood cells) in PAI-1 +/+ and PAI-1 −/− mice; details: 75 mg/kg i.p.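 Further: nude META/Bom nu/nu mice of both sexes, 24-30 g, blood taken for hematology on day 3 (anticipated WBC nadir) and on day 5 after dosing.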
Protocol: We investigated the sensitivity of the intact mouse by a “comparison” of sensitivity between the PAI-I +/+ and −/− mice in terms of weight loss.
Furthermore blood was sampled on the day of expected nadir (day 3 (WBC)) and day 5, with hematological evaluation.
Mice: META™/Bom nu/nu; PAI-1+/+ and PAI-1 −/−. Size (gram): 24-30 grams females and males.
The drug was administered i.p., freshly made, relative to body weight, in a NaCl solvent (Batch 3036111) according to the following table:

[6] = tested on: wild-type and PAI-1 gene-deficient fibrosarcoma cell lines; assay: Clonogenic assay (colony formation in soft agar); format: cell-based, mouse; details: PAI-1−/− versus wild type fibrosarcoma cells
Protocol: The cell lines described in Example 1 were used. The cells were in passage 35 (wild-type cells) and passage 50 (PAI-1 gene deficient cells). […] Gentle aspiration was repeated using a 1 ml syringe to achieve single cell suspension. 1 ml was then plated in triplicate in Petri dishes upon a feeder layer of SRBC (see separate paragraph for preparation of these). When the agar had solidified, 1 ml of media was added on top. 18-24 dishes were placed on plastic trays and two Petri dishes containing water were placed on each tray for conditioning. […] Colonies (>64 cells) were counted after 3 weeks. The experimental drugs were dissolved in media×300 the final concentration. […] Viable cells were counted after 8 minutes.

[7] = tested on: TIMP-1 +/+ and TIMP-1 −/− fibrosarcoma cell lines; assay: DNA-histone complex assay; format: cell-based, mouse

## COc1cc([C@@H]2c3cc4c(cc3[C@@H](O[C@@H]3O[C@@H]5CO[C@@H](C)O[C@H]5[C@H](O)[C@H]3O)[C@H]3COC(=O)[C@H]23)OCO4)cc(OC)c1O [etoposide]
[1]; TIMP-1−/− compared with TIMP-1+/+ fibrosarcoma cells
  sensitivity to treatment (LDH release): significantly more sensitive
[1]; both TIMP-1−/− and TIMP-1+/+ fibrosarcoma cells
  cell lysis (LDH release): dose-dependent cell lysis
[2]; 1.25 μM etoposide, 48 h
  LDH release (% of total activity): 41.10%
[2]
  sensitivity to treatment (LDH release): significantly more sensitive
  cell lysis (LDH release): dose-dependent cell lysis
[3]; 1.25 μM etoposide, 48 h
  LDH release (% of total activity): 1%
[4]
  resistance to induced cell death (LDH release): significantly more resistant
[5]; both genotypes
  day of WBC nadir: 3 days
[5]; both genotypes, p=0.0003
  effect on white blood cell count (WBC): suppresses white blood cell count
[5]; p=0.99
  difference in WBC response between PAI-1 +/+ and PAI-1 −/− mice: no difference
[5]; treated versus untreated, p<0.0001
  weight loss in treated mice: significant loss of weight
[5]; PAI-1 +/+ female mice, 22.0 hours
  Drug induced effect on weight loss (weight, initial = 100): 101.2
[5]; PAI-1 +/+ female mice, 44.5 hours
  Drug induced effect on weight loss (weight, initial = 100): 98.3
[5]; PAI-1 +/+ female mice, 67.0 hours
  Drug induced effect on weight loss (weight, initial = 100): 98.2
[5]; PAI-1 +/+ female mice, 93.5 hours
  Drug induced effect on weight loss (weight, initial = 100): 98.4
[5]; PAI-1 +/+ female mice, 120.0 hours
  Drug induced effect on weight loss (weight, initial = 100): 97.7
[5]; PAI-1 +/+ male mice, 22.0 hours
  Drug induced effect on weight loss (weight, initial = 100): 97.6
[5]; PAI-1 +/+ male mice, 44.5 hours
  Drug induced effect on weight loss (weight, initial = 100): 94.9
[5]; PAI-1 +/+ male mice, 67.0 hours
  Drug induced effect on weight loss (weight, initial = 100): 92.9
[5]; PAI-1 +/+ male mice, 93.5 hours
  Drug induced effect on weight loss (weight, initial = 100): 91.0
[5]; PAI-1 +/+ male mice, 120.0 hours
  Drug induced effect on weight loss (weight, initial = 100): 91.8
[5]; PAI-1 −/− female mice, 22.0 hours
  Drug induced effect on weight loss (weight, initial = 100): 99.9
[5]; PAI-1 −/− female mice, 44.5 hours
  Drug induced effect on weight loss (weight, initial = 100): 99.1
[5]; PAI-1 −/− female mice, 67.0 hours
  Drug induced effect on weight loss (weight, initial = 100): 99.6
[5]; PAI-1 −/− female mice, 93.5 hours
  Drug induced effect on weight loss (weight, initial = 100): 98.7
[5]; PAI-1 −/− female mice, 120.0 hours
  Drug induced effect on weight loss (weight, initial = 100): 100.3
[5]; PAI-1 −/− male mice, 22.0 hours
  Drug induced effect on weight loss (weight, initial = 100): 99.1
[5]; PAI-1 −/− male mice, 44.5 hours
  Drug induced effect on weight loss (weight, initial = 100): 96.3
[5]; PAI-1 −/− male mice, 67.0 hours
  Drug induced effect on weight loss (weight, initial = 100): 96.4
[5]; PAI-1 −/− male mice, 93.5 hours
  Drug induced effect on weight loss (weight, initial = 100): 95.6
[5]; PAI-1 −/− male mice, 120.0 hours
  Drug induced effect on weight loss (weight, initial = 100): 97.0
[6]
  sensitivity in clonogenic assay (colony formation): significantly more sensitive
[7]
  apoptosis induction: induced apoptosis

## Nc1ccn([C@@H]2O[C@H](CO)[C@@H](O)[C@@H]2O)c(=O)n1 [ARA-C]
[6]
  sensitivity in clonogenic assay (colony formation): significantly more sensitive

## N.N.[Cl][Pt][Cl] [cisplatin]
[6]
  sensitivity in clonogenic assay (colony formation): significantly more sensitive

## COc1cccc2c1C(=O)c1c(O)c3c(c(O)c1C2=O)C[C@@](O)(C(=O)CO)C[C@@H]3O[C@H]1C[C@H](N)[C@H](O)[C@H](C)O1 [doxorubicin]
[6]
  sensitivity in clonogenic assay (colony formation): significantly more sensitive

## TNF-α
[2]; 2.5 ng/ml TNF-α, 24 h
  LDH release (% of total activity): 46.3%
[2]
  sensitivity to treatment (LDH release): significantly more sensitive
  cell lysis (LDH release): dose-dependent cell lysis
[3]; 2.5 ng/ml TNF-α, 24 h
  LDH release (% of total activity): 7.3%
[4]
  resistance to induced cell death (LDH release): significantly more resistant

## CC[C@]1(O)C[C@H]2CN(CCc3c([nH]c4ccccc34)[C@@](C(=O)OC)(c3cc4c(cc3OC)N(C=O)[C@H]3[C@@](O)(C(=O)OC)[C@H](OC(C)=O)[C@]5(CC)C=CCN6CC[C@]43[C@@H]65)C2)C1 [vincristine]
[6]
  sensitivity in clonogenic assay (colony formation): significantly more sensitive
